The target of one data set is T1, Gal-4 hPPARγ (Homo sapiens, UniProt P37231).
T1 construct: Plasmids pGal4-hPPARα, pGal4-hPPARγ, pGal4-hPPARδ and pG5-TK-pGL3 were constructed as previously described by Staels, Bart, et al., Nature 1998 Jun; 25
T1 sequence (P37231 238-505 limits assumed): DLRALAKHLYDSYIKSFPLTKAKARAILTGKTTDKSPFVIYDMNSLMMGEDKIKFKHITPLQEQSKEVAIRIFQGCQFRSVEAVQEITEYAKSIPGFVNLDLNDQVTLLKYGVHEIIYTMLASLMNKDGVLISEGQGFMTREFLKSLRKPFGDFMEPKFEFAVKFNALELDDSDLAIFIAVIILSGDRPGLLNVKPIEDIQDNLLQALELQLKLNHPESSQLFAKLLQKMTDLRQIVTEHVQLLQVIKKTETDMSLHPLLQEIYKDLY
The experiment in a line: Gal4-hPPARγ transient transfection reporter assay in Cos cells. Format: cell-based. The note with it: luciferase reporter, 24 hours with compound, scale 1-5, read-out: Gal-4 hPPAR γ EC50 (scaled number). The method in brief:
(§1)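 Cos cells transiently co-transfected with Gal4-hPPAR expression plasmid, pG5-TK-pGL3 luciferase reporter and β-galactosidase control, then treated 24 h with increasing compound concentrations in DMEM containing 0.2% FCS. Luciferase normalised to β-galactosidase; EC50 from curve fit, at least three experiments.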
Background: A reporter such as luciferase makes a cellular process visible.

A short description of data set [1]: Metabolism studies using human liver microsomal preparations. Format: in vitro ADME. The note with it: for HLMs Predominant Enzyme: comparison of half life with and without NADPH: Esterase, CYP or Mixed; for half-life: pH 7.4, read-out: HLMs t1/2. The procedure, abridged:
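Pooled human liver microsomes in 50 mM Tris pH 7.4 with 5 mM MgCl2 at 37° C, with or without NADPH-generating system; buffer-only control for stability. Parent loss and acid metabolite formation followed by LC-MS/MS over 0–90 min. Half-life reported with NADPH; comparison with (−)NADPH assigns predominant enzyme.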

For another data set, the target named is T2, Gal-4 hPPARα (Homo sapiens, UniProt Q07869).
T2 construct: Plasmids pGal4-hPPARα, pGal4-hPPARγ, pGal4-hPPARδ and pG5-TK-pGL3 were constructed as previously described by Staels, Bart, et al., Nature 1998 Jun; 25
T2 sequence (Q07869 200-468 limits assumed): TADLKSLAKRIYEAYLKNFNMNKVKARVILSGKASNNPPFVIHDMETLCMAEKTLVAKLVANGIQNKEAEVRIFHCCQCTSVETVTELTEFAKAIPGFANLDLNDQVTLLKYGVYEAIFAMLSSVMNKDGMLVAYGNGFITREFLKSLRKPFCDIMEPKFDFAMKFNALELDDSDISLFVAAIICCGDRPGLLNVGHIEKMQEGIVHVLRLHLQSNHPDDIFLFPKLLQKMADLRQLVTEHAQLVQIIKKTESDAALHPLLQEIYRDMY
Kind of data set: Gal4-hPPARα transient transfection reporter assay in Cos cells. Format: cell-based. The note with it: luciferase reporter, 24 hours with compound, scale 1-5, read-out: Gal-4 hPPAR α EC50 (scaled number). The procedure, abridged:
as §1

Setting [2] is: pooled human liver microsomes, with NADPH (CYP system active), 37° C.

Structures are written as SMILES.

As usually defined, the EC50 is the midpoint of the concentration-response curve. Regarding `CCCCCCCCn1c(COC(=O)c2ccc(SC(C)(C)C(=O)O)cc2)nn(Cc2ccc(C)cc2)c1=O` [Compound 161, 2-methyl-2-(4-(((1-(4-methylbenzyl)-4-octyl-5-oxo-4,5-dihydro-1H-1,2,4-triazol-3-yl)methoxy)carbonyl)phenylthio)propanoic acid], the EC50 is 0.051 to 0.2 µM on Gal-4 hPPARγ and 0.001 to 0.05 µM at Gal-4 hPPARα. Further, in data set [1], the “HLMs Predominant Enzyme” value is “Esterase”. For the same molecule, in data set [1] (setting [2]), the half-life stood at 12 min.

For the molecule `CC(C)(Sc1ccc(C(=O)OCCc2cn(Cc3ccc(C(F)(F)F)cc3)nn2)cc1)C(=O)O` [Compound 91, 2-methyl-2-(4-((2-(1-(4-(trifluoromethyl)benzyl)-1H-1,2,3-triazol-4-yl)ethoxy)carbonyl)phenylthio)propanoic acid], the EC50 at Gal-4 hPPARγ is more than 1 µM; on Gal-4 hPPARα, 0.201 to 0.999 µM. Also, in data set [1], the “HLMs Predominant Enzyme” value was “Mixed”. Also, in data set [1] (setting [2]), the half-life turned out to be 55 min.

Consider `CC(C)(Sc1ccc(C(=O)OCc2cn(Cc3ccc(C(F)(F)F)cc3)nn2)cc1)C(=O)O` [Compound 67, 2-methyl-2-(4-(((1-(4-(trifluoromethyl)benzyl)-1H-1,2,3-triazol-4-yl)methoxy)carbonyl)phenylthio)propanoic acid], for which the values for the EC50 on Gal-4 hPPARγ and on Gal-4 hPPARα were more than 1 µM and 0.001 to 0.05 µM, respectively. The “HLMs t1/2 (min)” value in data set [1] (setting [2]) is recorded as “Stable”.
